# Key:
# [1] = (§1) The drug is tested on Z-028 corresponding to mouse gut metagenome with ENA study accession number: PRJEB37062 and ENA sample accession number: ERS12561827 for biotransformation under anaerobic condition. The drug concentrations were measured over 9 timepoints collected between 0 and 24 hours of incubation by liquid-chromatography-coupled mass spectrometry (LC–MS); settings: 2 µM
# [2] = as §1, with “Z-007” for “Z-028”, “rat” for “mouse”, “ERS12561807” for “ERS12561827”; settings: 2 µM
# [3] = human gut metagenome, 24 h, 2 µM
# [4] = human gut metagenome, 24 h, 2 µM; remark: listed apart in the source
# [5] = as §1, with “WLS-006” for “Z-028”, “human” for “mouse”, “ERS12561741” for “ERS12561827”; settings: 2 µM
# [6] = as §1, with “WLS-073” for “Z-028”, “human” for “mouse”, “ERS12561749” for “ERS12561827”; settings: 2 µM
# [7] = as §1, with “WLS-350” for “Z-028”, “human” for “mouse”, “ERS12561789” for “ERS12561827”; settings: 2 µM
# [8] = human gut metagenome, 24 h, 2 µM; remark: listed apart in the source
# [9] = as §1, with “WLS-170” for “Z-028”, “human” for “mouse”, “ERS12561762” for “ERS12561827”; settings: 2 µM
# [10] = human gut metagenome, 24 h, 2 µM; remark: listed apart in the source
# [11] = human gut metagenome, 24 h, 2 µM; remark: listed apart in the source
# [12] = human gut metagenome, 24 h, 2 µM; remark: listed apart in the source
# [13] = human gut metagenome, 24 h, 2 µM; remark: listed apart in the source
# [14] = human gut metagenome, 24 h, 2 µM; remark: listed apart in the source
# [15] = as §1, with “WLS-010” for “Z-028”, “human” for “mouse”, “ERS12561743” for “ERS12561827”; settings: 2 µM
# [16] = human gut metagenome, 24 h, 2 µM; remark: listed apart in the source
# [17] = as §1, with “Z-022” for “Z-028”, “ERS12561821” for “ERS12561827”; settings: 2 µM
# [18] = human gut metagenome, 24 h, 2 µM; remark: listed apart in the source
# [19] = human gut metagenome, 24 h, 2 µM; remark: listed apart in the source
# [20] = as §1, with “WLS-240” for “Z-028”, “human” for “mouse”, “ERS12561773” for “ERS12561827”; settings: 2 µM
# Also: call rule not given here.
SMILES,Bacterial Biotransformation [1],Bacterial Biotransformation [2],Bacterial Biotransformation [3],Bacterial Biotransformation [4],Bacterial Biotransformation [5],Bacterial Biotransformation [6],Bacterial Biotransformation [7],Bacterial Biotransformation [8],Bacterial Biotransformation [9],Bacterial Biotransformation [10],Bacterial Biotransformation [11],Bacterial Biotransformation [12],Bacterial Biotransformation [13],Bacterial Biotransformation [14],Bacterial Biotransformation [15],Bacterial Biotransformation [16],Bacterial Biotransformation [17],Bacterial Biotransformation [18],Bacterial Biotransformation [19],Bacterial Biotransformation [20]
CCC(COC(=O)c1cc(OC)c(OC)c(OC)c1)(c1ccccc1)N(C)C.O=C(O)/C=C\C(=O)O (stereo not given),Compound metabolized,Compound NOT metabolized,Compound metabolized,Compound NOT metabolized,Compound NOT metabolized,Compound NOT metabolized,Compound NOT metabolized,Compound metabolized,Compound metabolized,Compound NOT metabolized,Compound NOT metabolized,Compound metabolized,Compound NOT metabolized,Compound metabolized,Compound NOT metabolized,Compound metabolized,Compound metabolized,Compound NOT metabolized,Compound NOT metabolized,Compound metabolized
CC(Oc1c(Cl)cccc1Cl)C1=NCCN1 (stereo not given) [LOFEXIDINE],Compound NOT metabolized,Compound NOT metabolized,Compound metabolized,Compound NOT metabolized,Compound NOT metabolized,Compound NOT metabolized,Compound NOT metabolized,Compound NOT metabolized,Compound metabolized,Compound NOT metabolized,Compound NOT metabolized,Compound metabolized,Compound NOT metabolized,Compound NOT metabolized,Compound NOT metabolized,Compound NOT metabolized,Compound NOT metabolized,Compound NOT metabolized,Compound NOT metabolized,Compound metabolized
COC(=O)Nc1nc2ccc(C(=O)c3ccccc3)cc2[nH]1 [MEBENDAZOLE],Compound NOT metabolized,Compound metabolized,Compound metabolized,Compound metabolized,Compound metabolized,Compound metabolized,Compound NOT metabolized,Compound metabolized,Compound metabolized,Compound metabolized,Compound metabolized,Compound metabolized,Compound metabolized,Compound metabolized,Compound metabolized,Compound metabolized,Compound metabolized,Compound NOT metabolized,Compound metabolized,Compound metabolized
CC(C)NCC(O)c1ccc(NS(C)(=O)=O)cc1 (stereo not given) [SOTALOL],Compound NOT metabolized,Compound NOT metabolized,Compound NOT metabolized,Compound NOT metabolized,Compound NOT metabolized,Compound NOT metabolized,Compound NOT metabolized,Compound NOT metabolized,Compound metabolized,Compound NOT metabolized,Compound NOT metabolized,Compound NOT metabolized,Compound NOT metabolized,Compound NOT metabolized,Compound NOT metabolized,Compound NOT metabolized,Compound NOT metabolized,Compound NOT metabolized,Compound NOT metabolized,Compound NOT metabolized
CC(=O)OCC(=O)[C@@]1(O)[C@@H](C)C[C@H]2[C@@H]3CCC4=CC(=O)C=C[C@]4(C)[C@@]3(F)[C@@H](O)C[C@@]21C [BETAMETHASONE ACETATE],Compound metabolized,Compound NOT metabolized,Compound metabolized,Compound metabolized,Compound metabolized,Compound NOT metabolized,Compound metabolized,Compound metabolized,Compound metabolized,Compound NOT metabolized,Compound metabolized,Compound metabolized,Compound metabolized,Compound metabolized,Compound metabolized,Compound metabolized,Compound metabolized,Compound metabolized,Compound metabolized,Compound metabolized
COc1ccc2c(c1OC)C(=O)O[C@@H]2[C@H]1c2c(cc3c(c2OC)OCO3)CCN1C [NOSCAPINE],Compound NOT metabolized,Compound NOT metabolized,Compound metabolized,Compound NOT metabolized,Compound metabolized,Compound metabolized,Compound metabolized,Compound metabolized,Compound metabolized,Compound NOT metabolized,Compound NOT metabolized,Compound metabolized,Compound metabolized,Compound metabolized,Compound NOT metabolized,Compound NOT metabolized,Compound metabolized,Compound metabolized,Compound NOT metabolized,Compound metabolized
CC(C)NCC(O)COc1ccc(CCOCC2CC2)cc1 (stereo not given) [BETAXOLOL],Compound NOT metabolized,Compound NOT metabolized,Compound NOT metabolized,Compound NOT metabolized,Compound NOT metabolized,Compound NOT metabolized,Compound NOT metabolized,Compound metabolized,Compound metabolized,Compound NOT metabolized,Compound NOT metabolized,Compound NOT metabolized,Compound NOT metabolized,Compound NOT metabolized,Compound NOT metabolized,Compound NOT metabolized,Compound NOT metabolized,Compound NOT metabolized,Compound NOT metabolized,Compound metabolized

# From ChEMBL document CHEMBL5724914, “Linking interpersonal differences in gut microbiota composition and drug biotransformation activity” (2024)
